Key:
Format in all cases: cell-based, human
CFU-GM = test: Clonogenic assay of normal bone marrow progenitors, CFU-GM; details: normal BM; 4HC 100 μM, VP-16 5 μg/ml; 1 hr at 37° C.; scored at day 14; mean ± SD vs control cultures
Description: (§1) Bone Marrow Cells. Bone marrow was aspirated from the posterior iliac crest of healthy volunteers after obtaining written informed consent and BM mononuclear cells were collected after Ficoll-Hypaque gradient (1.077 g/cm3).
(§2) Incubation Procedure and Culture Techniques. Tumor cells and normal BM cells were adjusted to a concentration of 2×10^6 /ml and 20×10^6 /ml, respectively. […] After completion of 1 hr incubation at 37° C., the cells were put on ice for five minutes and washed twice with RPMI supplemented with FCS. To simulate "ex vivo" BM purging conditions, the HL-60 cells were also incubated together with irradiated (3,000 cGy) BM cells (1:10 ratio). […] Cells were incubated at 37° C. in humidified atmosphere of 5% of CO2 in air and scored for colonies (>50 cells) after 7 days of incubation using an inverted microscope.
(§3) After treatment, normal bone marrow cells were assayed for colonies derived from CFU-GM, BFU-E and CFU-GEM as already described (150). […] Quadruplicate cultures were incubated as described above and the colonies were scored after 14 days of incubation. […] Colonies (>20 cells) were scored after 10 days of incubation.
(§4) DATA ANALYSIS. All experiments were performed three or more times and the mean+standard deviation (SD) values of each experiment were calculated. Colony counts after drug treatment were expressed as a percent of the untreated control cells.

BFU-E = test: Clonogenic assay of normal bone marrow progenitors, BFU-E; details: normal BM; 4HC 100 μM, VP-16 5 μg/ml; 1 hr at 37° C.; scored at day 14; mean ± SD vs control cultures
Description: as §1, §2, §3, §4

HL-60 cell line = test: HL-60 clonogenic assay (colony-forming inhibition) after ex vivo purging treatment; details: 4HC 100 μM, VP-16 5 μg/ml, 1 hr incubation at 37° C., colonies scored after 7 days, mean + SD
Description: Human Cell Line. HL-60 is a human acute promyelocytic leukemia cell line growing with a doubling time of 24 hours and a plating efficiency of 7-12% (148). The cell line was maintained in exponential growth in RPMI-1640 supplemented with 10% fetal calf serum (FCS-Hyclone, Logan, U.S.A.) 1% L-Glutamine at 37° C. in a humidified atmosphere of 5% CO2 air. Cell viability was always higher than 95% and cells were free of mycoplasma contamination.
as §2, §4

O=P1(N(CCCl)CCCl)NC(OO)CCO1 (stereo not drawn) [4HC]
COLONY FORMING INHIBITION CFU-GM (CFU-GM): 84 ± 10%
COLONY FORMING INHIBITION BFU-E (BFU-E): 80.3 ± 12.5%
colony-forming inhibition (HL-60 cell line): 99.5+0.8%

— patent US6007814A, “Therapeutic uses of the hypervariable region of monoclonal antibody M195 and constructs thereof” (priority 1992, dated 1999)
